# Where a name gives a salt, the structure may show the parent alone.
# Tests used:
# Human PKMYT1 = biological target: T1, Human PKMYT1 (Homo sapiens, UniProt Q99640); assay: PKMYT1 biochemical ADP-Glo enzymatic assay; settings: ADP-Glo
# T1 construct: Human PKMYT1 75-362 was cloned as a TEV cleavable 6xHis fusion; 6xHis (TEV cleavable) (cleaved yes); made in house; host or cells: bacterial cells
# T1 sequence (Q99640 75-362): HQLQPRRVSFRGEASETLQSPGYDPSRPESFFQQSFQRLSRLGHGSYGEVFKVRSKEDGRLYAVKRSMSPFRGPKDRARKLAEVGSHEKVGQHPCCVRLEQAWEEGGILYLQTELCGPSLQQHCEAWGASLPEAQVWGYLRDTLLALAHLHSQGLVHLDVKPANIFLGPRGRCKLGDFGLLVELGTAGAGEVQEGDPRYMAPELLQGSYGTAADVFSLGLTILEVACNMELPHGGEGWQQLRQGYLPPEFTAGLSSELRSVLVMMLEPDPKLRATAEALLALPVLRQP
# Procedure, shortened: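 Luminescent ADP-Glo Max read-out of ADP produced by 15 nM PKMYT1 (residues 75-362, bacterial, His-tag removed) from 500 µM ATP without peptide substrate. Reaction: 50 mM HEPES pH 7.5, 10 mM MgCl2, 1 mM EGTA, 0.01% Brij-35, 60 min, 26 °C. IC50 values fitted from 10-point curves.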
# [1] = tested on: h-TERT-RPE1 TP53−/− CCNE1 high expressing clone cell line 7 (CL7); assay: Nuclear count cell proliferation assay, CCNE1 high expressing clone cell line 7 (CL7) of h-TERT-RPE1 TP53−/−; type: cell-based; settings: banded; for Selectivity Ratio Wt vs. CL7: GI50 ratio RPE Wt vs. CL7, >N = at least in this band; for GI50: hTERT-RPE1, h-TERT-RPE1 TP53−/− CCNE1 high clone CL7, nuclear count, around 6 population doublings, read-out: RPE CL7 GI50
# Method: (§1) h-TERT-RPE1 TP53−/− and CCNE1 high expressing clones (clone cell lines 7 and 15) were treated with test compounds dissolved in DMSO at serially diluted concentrations alongside a DMSO only control for around 6 population doublings time. Cells were then fixed with 4% Paraformaldehyde and the cell nuclei were stained with DAPI (Sigma D9542). Images covering each well were acquired by an Opera Phenix® High-Content Screening System (PerkinElmer). Image analysis was performed using Harmony® high-content analysis software (PerkinElmer). Data analysis was performed using Microsoft Excel® and GI50 estimates generated with GraphPad Prism v9. Percent nuclear count was compared to vehicle control wells and used to measure inhibition of proliferation.
# [2] = tested on: h-TERT-RPE1 TP53−/− parental cells; assay: Nuclear count cell proliferation assay, parental (wild type) h-TERT-RPE1 TP53−/− cells; type: cell-based; settings: hTERT-RPE1, h-TERT-RPE1 TP53−/− parental (Wt), around 6 population doublings, banded, read-out: RPE Wt GI50
# Method: as §1
# WEE1 = biological target: T2, WEE1 (Homo sapiens, UniProt P30291); assay: Selectivity versus WEE1 assay (ADP-Glo enzymatic assay); type: biochemical; settings: for IC50: ADP-Glo; for PKMYT1 vs. WEE1 selectivity: fold difference in selectivity for PKMYT1 over WEE1
# T2 construct: purchased Thermo Fisher PR7373A
# T2 sequence (P30291 whole entry): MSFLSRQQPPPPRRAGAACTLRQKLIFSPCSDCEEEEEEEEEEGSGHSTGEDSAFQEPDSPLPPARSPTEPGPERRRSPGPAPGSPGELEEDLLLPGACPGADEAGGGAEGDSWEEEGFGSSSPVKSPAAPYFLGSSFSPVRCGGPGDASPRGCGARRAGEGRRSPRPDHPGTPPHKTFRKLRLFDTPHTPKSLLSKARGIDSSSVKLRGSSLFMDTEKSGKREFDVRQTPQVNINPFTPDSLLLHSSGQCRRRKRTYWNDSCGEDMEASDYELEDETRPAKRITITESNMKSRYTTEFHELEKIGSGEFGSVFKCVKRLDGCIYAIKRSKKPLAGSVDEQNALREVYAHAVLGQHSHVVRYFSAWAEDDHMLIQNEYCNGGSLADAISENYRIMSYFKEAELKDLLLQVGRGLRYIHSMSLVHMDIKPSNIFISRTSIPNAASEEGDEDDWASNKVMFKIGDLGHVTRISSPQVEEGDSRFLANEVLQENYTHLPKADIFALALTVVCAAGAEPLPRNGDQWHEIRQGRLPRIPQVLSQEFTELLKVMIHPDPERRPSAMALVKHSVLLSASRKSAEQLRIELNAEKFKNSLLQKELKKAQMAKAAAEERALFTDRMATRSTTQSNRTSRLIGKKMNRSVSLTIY
# Procedure, shortened: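 ADP-Glo luminescence read-out after a 60 min reaction at 26° C, initiated by 30 µM ATP, with 15 nM enzyme in HEPES pH 7.5/MgCl2/EGTA/Brij-35 buffer containing 1% DMSO. Replicate IC50 values had to agree within 3-fold and fits needed r2 >0.9.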
# KYSE-30 cells = assay: Cancer cell line proliferation assay, ATP-based cell viability (Cell Titre Glow), KYSE-30 (normal CCNE1); settings: Homo sapiens, KYSE-30 cells (normal CCNE1), concentration that achieves 50% cell growth proliferation inhibition, read-out: KYSE30 Gl50
# Procedure, shortened: (§2)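 Proliferation of KYSE-30 (normal CCNE1) and CCNE1-amplified OVCAR 3 ovarian cancer cells treated with PKMYT1 inhibitors, read by Cell Titre Glow luminescence. GI50 is the concentration giving 50% growth inhibition.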
# OVCAR 3 cells = assay: Cancer cell line proliferation assay, ATP-based cell viability (Cell Titre Glow), OVCAR 3 (CCNE1-amplified); settings: KYSE30 (normal CCNE1) GI50 vs. OVCAR 3 (CCNE1-amplified) GI50
# Procedure, shortened: as §2
# [3] = biological target: T3, Cellular PKMYT1 Biomarker CDK1 pT14 (Homo sapiens, UniProt Q99640); assay: Inhibition of cellular PKMYT1 biomarker CDK1 pT14 in OVCAR 3 cells (immunoblot); type: cell-based; settings: 20 hours incubation
# T3 construct: read-out CDK1 phospho-T14 immunoblot
# T3 sequence (Q99640 1-499): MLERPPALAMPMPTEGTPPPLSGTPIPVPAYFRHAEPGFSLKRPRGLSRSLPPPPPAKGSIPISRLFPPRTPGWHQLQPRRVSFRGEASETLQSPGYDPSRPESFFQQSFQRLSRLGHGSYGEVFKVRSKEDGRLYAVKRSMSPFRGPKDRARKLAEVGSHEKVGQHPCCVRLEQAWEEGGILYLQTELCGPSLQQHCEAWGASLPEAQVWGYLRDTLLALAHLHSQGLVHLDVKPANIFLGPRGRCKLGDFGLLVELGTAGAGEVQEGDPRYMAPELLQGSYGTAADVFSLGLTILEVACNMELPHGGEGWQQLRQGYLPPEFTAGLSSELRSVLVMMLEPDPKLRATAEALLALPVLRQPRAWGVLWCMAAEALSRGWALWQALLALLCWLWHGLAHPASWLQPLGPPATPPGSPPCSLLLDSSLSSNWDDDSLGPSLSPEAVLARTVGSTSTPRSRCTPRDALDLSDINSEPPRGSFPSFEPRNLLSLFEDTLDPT
# Procedure, shortened: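 Confluent OVCAR 3 cells treated with a compound concentration range for 20 h at 37 °C. Lysates analysed by automated capillary immunoblot for CDK1 phospho-T14, with vinculin, fluorescence detection; IC50 by regression.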
# [4] = 15 nM PKMYT1 kinase domain, 500 µM ATP, 60 minutes at 26° C., banded
# [5] = 15 nM WEE1, 60 minutes at 26° C., banded
# [6] = banded, ">N" = at least in this band but could be higher
# [7] = PKMYT1 kinase domain 15 nM, banded values
SMILES,IC50 (Human PKMYT1; [4]) [nM],Selectivity Ratio Wt vs. CL7 [1],GI50 [1] [nM],GI50 [2] [nM],IC50 (WEE1; [5]) [nM],PKMYT1 vs. WEE1 selectivity (WEE1; [6]),GI50 (KYSE-30 cells) [nM],Selectivity ratio KYSE30 Gl50 vs. OVCAR3 Gl50 (OVCAR 3 cells),IC50 [3] [nM],IC50 (Human PKMYT1; [7]) [nM],"IC50 (WEE1; WEE1 15 nM, banded values) [nM]",PKMYT1 vs. WEE1 selectivity (WEE1; banded)
Cc1ccc(O)c(C)c1NC(=O)c1cnc(Nc2ccn(CC(=O)N3CCC(C)(C)CC3)n2)s1 [BAA-137],< 50,X (3-<10 fold),500 to 3000,500 to 3000,> 11000,Y (1000-5000 fold),–,–,–,–,–,–
"Cc1ccc(O)c(C)c1NC(=O)c1cnc(Nc2ccn([C@@H]3CCN(Cc4ccccc4)C3)n2)s1 [BAA-113, 2-[[1-[(3R)-1-Benzylpyrrolidin-3-yl]pyrazol-3-yl]amino]-N-(3-hydroxy-2,6-dimethyl-phenyl)thiazole-5-carboxamide]",50 to 1000,Y (10-30 fold),500 to 3000,3000 to 10000,> 11000,>X (100-<1000 fold),–,–,–,–,–,–
Cc1ccc(O)c(C)c1NC(=O)c1cnc(Nc2ccn(CC(=O)NC3CC3)n2)s1 [BAA-190],< 50,X (3-<10 fold),500 to 3000,3000 to 10000,> 11000,Y (1000-5000 fold),–,–,–,–,–,–
"Cc1ccc(O)c(C)c1NC(=O)c1cnc(Nc2ccn(CC(=O)N3CC4CCC(C3)N4)n2)s1 [BAA-230, 2-((1-(2-(3,8-diazabicyclo[3.2.1]octan-3-yl)-2-oxoethyl)-1H-pyrazol-3-yl)amino)-N-(3-hydroxy-2,6-dimethylphenyl)thiazole-5-carboxamide]",< 50,X (3-<10 fold),3000 to 10000,> 10000,> 11000,X (100-<1000 fold),–,–,–,–,–,–
"Cc1cn(S(=O)(=O)c2ccccc2)nc1Nc1ncc(C(=O)Nc2c(C)ccc(O)c2C)s1 [BAA-379, N-(3-Hydroxy-2,6-dimethylphenyl)-2-((4-methyl-1-(phenylsulfonyl)-1H-pyrazol-3-yl)amino)thiazole-5-carboxamide]",< 50,–,–,–,> 11000,X (100-<1000 fold),> 5000,X (3-20 fold),< 100,–,–,–
"CCN(C(=O)Cn1cc(C)c(Nc2ncc(C(=O)Nc3c(C)ccc(O)c3C)s2)n1)C1CC1 [BAA-551, 2-((1-(2-(cyclopropyl(ethyl)amino)-2-oxoethyl)-4-methyl-1H-pyrazol-3-yl)amino)-N-(3-hydroxy-2,6-dimethylphenyl)thiazole-5-carboxamide]",–,–,–,–,–,–,500 to 5000,Y (>20 fold),< 100,< 50,1000 to 11000,X (100-<1000 fold)
"Cc1cn(CC(=O)N2CCC(C(F)(F)F)C2)nc1Nc1ncc(C(=O)Nc2c(C)ccc(O)c2C)s1 (stereo not drawn) [BAA-504, N-(3-hydroxy-2,6-dimethylphenyl)-2-((4-methyl-1-(2-oxo-2-(3-(trifluoromethyl)pyrrolidin-1-yl)ethyl)-1H-pyrazol-3-yl)amino)thiazole-5-carboxamide]",–,–,–,–,–,–,> 5000,Y (>20 fold),100 to 1000,< 50,1000 to 11000,X (100-<1000 fold)
"Cc1ccc(O)c(C)c1NC(=O)c1cnc(Nc2cccc(-c3cnn(C)c3)n2)s1 [BAA-390, N-(3-hydroxy-2,6-dimethylphenyl)-2-((6-(1-methyl-1H-pyrazol-4-yl)pyridin-2-yl)amino)thiazole-5-carboxamide]",< 50,–,–,–,1000 to 11000,X (100-<1000 fold),500 to 5000,Y (>20 fold),< 100,–,–,–
"Cc1ccc(O)c(C)c1NC(=O)c1cnc(Nc2nn(CC(F)F)cc2Cl)s1 [BAA-569, 2-((4-chloro-1-(2,2-difluoroethyl)-1H-pyrazol-3-yl)amino)-N-(3-hydroxy-2,6-dimethylphenyl)thiazole-5-carboxamide]",–,–,–,–,–,–,500 to 5000,Y (>20 fold),< 100,< 50,1000 to 11000,X (100-<1000 fold)
"Cc1cn(C(CO)C(=O)N(C)C2CC2)nc1Nc1ncc(C(=O)Nc2c(C)ccc(O)c2C)s1 (stereo not drawn) [BAA-591, 2-((1-(1-(cyclopropyl(methyl)amino)-3-hydroxy-1-oxopropan-2-yl)-4-methyl-1H-pyrazol-3-yl)amino)-N-(3-hydroxy-2,6-dimethylphenyl)thiazole-5-carboxamide]",–,–,–,–,–,–,> 5000,Y (>20 fold),< 100,< 50,1000 to 11000,X (100-<1000 fold)
"Cc1ccc(O)c(C)c1NC(=O)c1cnc(Nc2nn(CC(F)F)cc2Br)s1 [BAA-587, 2-((4-bromo-1-(2,2-difluoroethyl)-1H-pyrazol-3-yl)amino)-N-(3-hydroxy-2,6-dimethylphenyl)thiazole-5-carboxamide]",–,–,–,–,–,–,500 to 5000,Y (>20 fold),< 100,< 50,1000 to 11000,X (100-<1000 fold)
"Cc1cn(CC(F)(F)F)nc1Nc1ncc(C(=O)Nc2c(C)ccc(O)c2C)s1 [BAA-271, N-(3-hydroxy-2,6-dimethylphenyl)-2-((4-methyl-1-(2,2,2-trifluoroethyl)-1H-pyrazol-3-yl)amino) thiazole-5-carboxamide]",< 50,–,–,–,> 11000,X (100-<1000 fold),> 5000,Y (>20 fold),< 100,–,–,–
"CCc1cn(CC#N)nc1Nc1ncc(C(=O)Nc2c(C)ccc(O)c2C)s1 [BAA-590, 2-((1-(cyanomethyl)-4-ethyl-1H-pyrazol-3-yl)amino)-N-(3-hydroxy-2,6-dimethylphenyl)thiazole-5-carboxamide. TFA salt]",–,–,–,–,–,–,> 5000,Y (>20 fold),< 100,< 50,50 to 1000,W (10-<100 fold)
"Cc1ccc(O)c(C)c1NC(=O)c1cnc(Nc2cccc(N(C)C)n2)s1 [BAA-417, 2-((6-(dimethylamino)pyridin-2-yl)amino)-N-(3-hydroxy-2,6-dimethylphenyl)thiazole-5-carboxamide]",–,–,–,–,–,–,500 to 5000,Y (>20 fold),100 to 1000,< 50,> 11000,X (100-<1000 fold)

# — patent US20260297042A1, “BIARYLAMIDE DERIVATIVES AND THEIR USE AS PKMYT1 INHIBITORS” (CANCER RESEARCH TECHNOLOGY LIMITED, priority 2023, published 2026)
